The values that follow come from US11028084B2, “Selective inhibitors of gentotoxic steress-induced IKK/NF-κB pathways” (Max-Delbrück-Centrum für Molekulare Medizin in der …, priority 2016, dated 2021).

SMILES strings stand for the structures.

Assay [1] has as its system TNFα-induced NF-κB activation. Description: p65 S536 phosphorylation after TNFα stimulation, SDS-PAGE/WB, U2OS cells. The class given is cell-based, human. The settings on record: 10 μM and 20 μM. As for the experimental part: FIG. 4: (A) U2OS cells were pre-treated with increasing concentrations of MW01 in triplicates in a 384 well plate. Then, cells were treated with TNFα, fixed and subjected to IF staining of p65. Spatial measurement of p65 cytosolic and nuclear signals was used for the calculation of p65 translocation rates. (B) U2OS cells were pre-treated with MW01 at concentrations of 10 or 20 μM and stimulated with TNFα. Cell lysates were subjected to SDS-PAGE/WB. (C) HEK293 cells were pre-treated with DMSO or MW01 followed by administration of etoposide or TNFα. Cell lysates were used for EMSA.
For the activation of the canonical NF-κB pathway cells were treated with recombinant human TNFα (10 ng/ml) or IL-1β (10 ng/ml) for 20-30 min at 37° C.

The test system of assay [2] is NF-κB target genes NFKBIA, TNFAIP3, CXCL8. Description: qRT-PCR of NF-κB target genes after irradiation, U2OS cells. The settings on record: 90 min after irradiation. The format is cell-based, human. As to the method: FIG. 14: (A) U2OS cells were pre-treated with different concentrations of olaparib prior to co-treatment with etoposide. Whole cell lysis was performed after 90 min and cleared lysates were used for WB with indicated antibodies. (B) U2OS cells were pre-treated with DMSO, olaparib or the ATM inhibitor Ku55933 and co-treated with etoposide. Cells were harvested after 45 min and subjected to SDS-PAGE/WB. Membranes were stained with the indicated antibodies. The experiment of (B) was performed simultaneously to the experiments of (A) and (E) to control functionality of olaparib in inhibiting PAR chain formation. (C) Densitometrical analyses of (A) and two further independent experiments done as shown in (A). (D) U2OS cells were pre-treated with the substances as indicated prior to irradiation. After 90 min mRNA was isolated, transcribed into cDNA and was used for expression analyses of the indicated genes using quantitative real-time PCR (qRT-PCR). (E) HepG2 cells were pre-treated with the PARP inhibitors olaparib, 3-AB and EB-47 prior to γ-irradiation. Cells were harvested after 15 and 90 min and subjected to SDS-PAGE/WB. Membranes were stained with the indicated antibodies. Error bars equal SEM.
To quantitate specific mRNA (messenger RNA) species in samples RNA was isolated, RNA concentration was measured and mRNA was transcribed into cDNA. The amount of mRNA transcripts of certain genes within a sample was quantified by employing gene specific primers and using a C-1000 Thermal cycler (Biorad). The expression of genes of interest was normalised against two or three reference genes (HRPT1, RPL_13a and B2M) using the CFX manager software. The fold induction of mRNA was calculated over untreated sample levels by the ΔΔ-Ct method.
On the technique in general: In qPCR the cycle at which signal appears reflects the starting amount.

The next assay has as its system MEF cells. Description: Annexin V staining, flow cytometry, MEF cells. The class given is cell-based, mouse. As to the method:
FIG. 16: (A) U2OS cells were pre-treated with DMSO or MW01 and irradiated. Cells were lysed 8 h post γ-IR and were used for western blotting and immunochemical staining. (B) HEK293 cells were pre-treated with DMSO or MW01 and irradiated. After 48 h cells were fixed and stained with crystal violet. Dissolved crystal violet was used for absorbance measurement in a visible light spectrophotometer at a wavelength of 595 nm. (C) HEK293 cells were pre-treated with DMSO or MW01 and irradiated. The percentage of viable cells within the population was calculated by exclusion of annexin V and propidium-iodide positive cells measured by flow cytometry. (D) MEF cells were pre-treated with DMSO or MW01 and irradiated. Cells were used for annexin V staining 24 h and 48 after γ-IR. Percentage of annexin V positive cell population was analysed using a flow cytometer. (E) Experiment done as shown in (D) but with HT1080 cells processed 8 h after irradiation. Statistical significance was calculated using students t-test.
Cells were washed with ice-cold PBS and detached from growing dishes using Trypsin/EDTA solution. Detached cells were centrifuged at 300×g for 5 min. Detection of early apoptotic cells was performed by staining with annexin V-FITC antibody according to manufacturer's instructions (eBioscience Annexin V-FITC Apoptosis detection Kit). Necroptotic and late apoptotic cells were stained by addition of propidium iodide (final concentration 1 μg/ml) prior to measurements.
The sensitising effect of MW01 on cells was tested in MEF cells with a low irradiation dose of 2 Gy, an amount cells are able to repair. Cells were pre-treated with MW01, irradiated and cells were analysed by annexin V staining 24 or 48 h after irradiation. After 24 h, the treatment of cells with MW01 led to an increase of annexin V positive cells of about 10%. […] Comparing the annexin V positive cells of MW01 treated and MW01/γ-IR co-treated samples, a sensitising effect for low γ-irradiation dose-induced apoptosis of about 12% was found (FIG. 16 D).

For `COc1ccc2c(c1OC)c(=O)n1c3ccc(O)cc3c3ccnc2c31` [MW01, 12-hydroxy-6,7-dimethoxy-8H-benzo[c]indolo[3,2,1-ij][1,5]naphthyridin-8-one], in assay [1], the “p65 S536 phosphorylation after TNFα” value is recorded as “no effect”. The “NFKBIA, TNFAIP3 and CXCL8 mRNA induction upon irradiation” value in assay [2] was “complete inhibition”. Also, in the assay with MEF cells (24 h, without IR), the “increase of annexin V positive cells” value was “about 10%”. In addition, the “sensitising effect for low γ-irradiation dose-induced apoptosis” value with MEF cells (MW01 vs MW01/γ-IR co-treated samples) is given as “about 12%”. Also, the “annexin V staining of cells” value with MEF cells (after 2 Gy of γ-irradiation) is “circa 34%”.
